{"source": "patent US4520024A", "about": "“Method of selectively blocking peripheral vascular serotonergic receptors” (Eli Lilly and Company, priority 1983, dated 1985)", "key": {"[1]": {"system": "conscious spontaneously hypertensive rats (SHR)", "test": "In vivo studies, conscious SHR, mean arterial blood pressure", "set-up": "species or system rat", "details": "intraperitoneal, 10 mg./kg. dose level", "text": "Twenty-four week old SHR (325-425 g.) rats were anesthetized with halothane. They were then implanted with femoral arterial and venous catheters. The tips of the arterial and venous catheters were positioned in the abdominal aorta below the renal arteries and lower abdominal vena cava, respectively. The catheters were routed subcutaneously to an exit point at the base of the skull and then through a small leather harness fastened around the forequarters of each animal. The animals were allowed a 3-4 day recovery period after surgery. On the day before a given experiment, the rats to be used in that experiment were conditioned to the experimental surroundings for about 6 hours. In carrying out the determination, the harness on the back of each animal was connected to a spring-tether through which arterial and venous extension tubing were routed. The opposite end of the tubing was connected to a water tight swivel. This system permitted direct recording of blood pressure in conscious, free-moving animals. Mean arterial blood pressure was measured via a Statham strain gauge transducer and recorded on a multichannel oscillograph. The rats were equilibrated for at least 30 minutes prior to the initiation of the experimental protocol. During this equilibration period, the animals preened themselves and the blood pressure was quite labile. After this period, the animals appeared to sleep and pressure was stable. Following a control blood pressure measurement, the rats were dosed with ketanserin, benzoctamine, 1-(1-naphthyl)piperazine or the experimental vehicle via the intraperitoneal route. Blood pressure was monitored at various time intervals after dosing."}, "alpha1 receptor": {"system": "alpha1 receptor", "test": "In vivo studies, pithed SHR, pressor response to methoxamine", "set-up": "species or system rat", "details": "i.p., rank order among three drugs", "description": "SHR were anesthesized with halothane, femoral arterial and venous catheters implanted as before and the trachea cannulated. Each rat was pithed by passing a steel rod through the right orbit and down the entire length of the spinal column. The steel rod remained in place for the duration of the experiment. Immediately after pithing, the rats were ventilated with room air via a rodent respirator which eliminated any anesthetic effects. […] The response was recorded and the blood pressure allowed to recover to control levels. […] The test drugs were prepared fresh daily and administered by the intraperitoneal route. Benzoctamine and 1-(1-naphthyl)piperazine were administered at a 10 mg./kg. dosage and ketanserin at a 1 mg./kg. dosage."}, "5HT2 receptors [2]": {"molecular_target": "T1, 5HT2 receptors (Rattus norvegicus, UniProt P14842)", "T1 sequence (P14842 whole entry)": "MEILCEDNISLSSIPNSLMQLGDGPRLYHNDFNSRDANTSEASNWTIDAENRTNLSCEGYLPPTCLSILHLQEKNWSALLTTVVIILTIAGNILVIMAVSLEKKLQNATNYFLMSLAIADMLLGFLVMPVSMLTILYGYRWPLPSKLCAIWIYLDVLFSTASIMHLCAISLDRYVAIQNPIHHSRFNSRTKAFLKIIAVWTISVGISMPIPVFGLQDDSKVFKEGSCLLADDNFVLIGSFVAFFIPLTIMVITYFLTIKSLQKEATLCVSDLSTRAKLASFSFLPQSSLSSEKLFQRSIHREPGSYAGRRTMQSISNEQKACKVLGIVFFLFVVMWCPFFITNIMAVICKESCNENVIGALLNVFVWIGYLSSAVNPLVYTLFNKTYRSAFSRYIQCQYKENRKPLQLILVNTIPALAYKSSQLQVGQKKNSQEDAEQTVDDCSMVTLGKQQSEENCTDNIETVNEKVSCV", "test": "In vivo studies, pithed SHR, pressor response to serotonin", "set-up": "from tissue; host or cells: whole animal: pithed SHR, vascular tissue in vivo", "details": "i.p., rank order among three drugs", "description": "SHR were anesthesized with halothane, femoral arterial and venous catheters implanted as before and the trachea cannulated. Each rat was pithed by passing a steel rod through the right orbit and down the entire length of the spinal column. The steel rod remained in place for the duration of the experiment. Immediately after pithing, the rats were ventilated with room air via a rodent respirator which eliminated any anesthetic effects. An equilibration period of 15 minutes was observed prior to control measurements and administration of drugs or vehicle i.p. Increasing doses of serotonin or methoxamine were injected i.v. 15 minutes after the equilibration period. The response was recorded and the blood pressure allowed to recover to control levels. […] The test drugs were prepared fresh daily and administered by the intraperitoneal route. Benzoctamine and 1-(1-naphthyl)piperazine were administered at a 10 mg./kg. dosage and ketanserin at a 1 mg./kg. dosage."}, "[3]": {"system": "alpha-adrenergic receptors", "test": "Apparent dissociation constant, antagonism of norepinephrine-induced contraction in rat aorta", "assay_type": "cell-based", "text": "(§1) Male Wistar rats (150-300 gram weight) were killed and their external jugular veins and thoracic aortas dissected free of connective tissue, cannulated in situ and placed in a modified Krebs' bicarbonate buffer in a suitable tissue bath. Two L-shaped 30-gauge stainless-steel hypodermic needles were inserted in each cannula and the dissected vessels gently pushed onto the needles. One needle was attached with thread to a stationary glass rod and the other to the transducer. [The procedure employed was that described by Hooker, Calkins and Fleisch, Blood Vessels, 14, 1, (1977) for use with circular smooth muscle preparations.]\n(§2) The modified Krebs' bicarbonate buffer had the following makeup: (concentrations in millimoles): sodium chloride, 118.2; potassium chloride, 4.6; calcium chloride dihydrate, 1.6; potassium dihydrogenphosphate, 1.2; magnesium sulfate, 1.2; dextrose, 10.0; sodium bicarbonate, 24.8; and water q.s. to 1000 g. […] Isometric contractions were recorded as changes in grams of force on a Beckman Dynograph with Statham UC-3 transducers and microscale accessory attachment. […] Contraction to serotonin was evaluated in the jugular vein since this tissue produces marked responses to serotonin in the absence of alpha receptors--see Cohen and Wiley, J. Pharm. […] Alpha receptor antagonist activity was evaluated in the aorta. […]"}, "5HT2 receptors [4]": {"molecular_target": "T1, 5HT2 receptors", "test": "Apparent dissociation constant, antagonism of serotonin-induced contraction in rat jugular vein", "assay_type": "cell-based", "set-up": "from tissue; host or cells: whole animal: pithed SHR, vascular tissue in vivo", "details": "serotonin as agonist, antagonist incubated one hour, read-out: -log KB for 5HT2 receptors (converted)", "text": "as §1, §2"}}, "data": [{"smiles": "O=C(c1ccc(F)cc1)C1CCN(CCn2c(=O)[nH]c3ccccc3c2=O)CC1", "note": "[ketanserin]", "values": [{"measurement": "blood pressure lowering", "setting": "[1]", "result": "produced the greatest fall in blood pressure"}, {"measurement": "inhibition in the pressor response to methoxamine", "setting": "alpha1 receptor; 1 mg./kg.", "result": "greatest effect"}, {"measurement": "inhibition of the pressor response to serotonin", "setting": "5HT2 receptors [2]; 1 mg./kg.", "result": "greatest"}]}, {"smiles": "CNCC12CCC(c3ccccc31)c1ccccc12", "note": "[benzoctamine]", "values": [{"measurement": "blood pressure lowering", "setting": "[1]", "result": "lowered blood pressure as did ketanserin but to a lesser degree"}, {"measurement": "inhibition in the pressor response to methoxamine", "setting": "alpha1 receptor; 10 mg./kg.", "result": "second"}, {"measurement": "inhibition of the pressor response to serotonin", "setting": "5HT2 receptors [2]; 10 mg./kg.", "result": "then benzoctamine"}]}, {"smiles": "c1ccc2c(N3CCNCC3)cccc2c1", "note": "[1-(1-naphthyl)piperazine]", "values": [{"measurement": "-log KB for alpha-adrenergic receptors", "setting": "[3]; rat thoracic aorta, norepinephrine as agonist, antagonist incubated one hour, 60 min", "result": 5.38}, {"measurement": "lower affinity for alpha-adrenergic receptors than for 5HT2 receptors", "setting": "[3]; ratio of affinities, 5HT2 versus alpha-adrenergic", "result": "approximately 2000 fold"}, {"measurement": "blood pressure lowering", "setting": "[1]", "result": "ineffective as a blood pressure lowering agent"}, {"measurement": "inhibition in the pressor response to methoxamine", "setting": "alpha1 receptor; 10 mg./kg.", "result": "the least"}, {"measurement": "Kb", "setting": "5HT2 receptors [4]", "result": 1.78, "unit": "nM"}]}]}
